Results published in patent publication US20230174660A1, “USE OF A MULTIMERIC ANTI-DR5 BINDING MOLECULE IN COMBINATION WITH A CANCER THERAPY FOR TREATING CANCER” (IGM Biosciences, Inc., priority 2020, published 2023).
Like-named read-outs stand apart in the source and are kept apart here.

Legend:
WSU-DLCL2 = experiment: Cell Titer Glo viability, Mab A + chemotherapeutic/targeted agent (Example 9); format: cell-based; conditions: 72 hours; for Average Bliss score: combination with Mab A, WSU-DLCL2 (NHL)
OCI-LY7 = experiment: as above; conditions: combination with Mab A; OCI-LY7 (NHL); 72 hours
Karpas-422 = experiment: as above; format: cell-based; conditions: combination with Mab A; Karpas-422 (NHL); 72 hours
U-937 [1] = experiment: as above; conditions: 72 hours; for Average Bliss score: combination with Mab A, U-937 (NHL)
U-937 [2] = test system: U-937
DOHH-2 = experiment: Cell Titer Glo viability, Mab A + chemotherapeutic/targeted agent (Example 9); conditions: combination with Mab A; DOHH-2 (NHL); 72 hours
[3] = test system: primary human hepatocytes; experiment: as above; format: cell-based; conditions: 72 hours
Toledo = experiment: as above; format: cell-based; conditions: combination with Mab A; Toledo (NHL); 72 hours
HCT 116 = experiment: Cell Titer Glo viability, Mab A + SMAC mimetics (Example 13); format: cell-based; conditions: SMAC mimetic in combination with Mab A
Protocol: (§1) Synergy was determined as described in earlier examples. The average Bliss synergy scores for combinations of Mab A and SMAC mimetic on the various tumor cell lines are shown in Table 15.

SW1353 = experiment: as above; format: cell-based; conditions: SMAC mimetic in combination with Mab A
Protocol: as §1

OVCAR-4 = experiment: as above; format: cell-based; conditions: SMAC mimetic in combination with Mab A
Protocol: as §1

SK-MEL-5 = experiment: as above; format: cell-based; conditions: SMAC mimetic in combination with Mab A
Protocol: as §1

EBC-1 = experiment: as above; format: cell-based; conditions: SMAC mimetic in combination with Mab A
Protocol: as §1

HT 1080 = experiment: as above; format: cell-based; conditions: SMAC mimetic in combination with Mab A
Protocol: as §1

MDA-MB-231 tumor cells = experiment: Cell Titer Glo viability, Mab A + SMAC mimetic (Example 7); conditions: MDA-MB-231 cells; 72 hours
[4] = test system: DR5 agonist-resistant MDA-MB-231 cells; experiment: Cell Titer Glo viability, Mab A + SMAC mimetic on DR5 agonist-resistant tumor cells (Example 8); format: cell-based
SNU5 = experiment: Cell Titer Glo viability, Mab A + chemotherapeutic agent, Bliss synergy (Example 1); format: cell-based; conditions: combination with anti-DR5 IgM Mab A; SNU5, Gastric Adenocarcinoma; 72 hours
NCIH508 = experiment: as above; format: cell-based; conditions: combination with anti-DR5 IgM Mab A; NCIH508, Colorectal Caecum Adenocarcinoma; 72 hours
HT55 = experiment: as above; format: cell-based; conditions: combination with anti-DR5 IgM Mab A; HT55, Colorectal Carcinoma; 72 hours
PANC1 = experiment: as above; format: cell-based; conditions: combination with anti-DR5 IgM Mab A; PANC1, Pancreas Ductal Adenocarcinoma, exocrine; 72 hours
[5] = test system: primary human hepatocytes; experiment: as above; format: cell-based; conditions: combination with anti-DR5 IgM Mab A, Liver, 72 hours
UMUC3 = experiment: as above; format: cell-based; conditions: combination with anti-DR5 IgM Mab A; UMUC3, Bladder Transitional Cell Carcinoma; 72 hours
MOLM13 = experiment: as above; format: cell-based; conditions: combination with anti-DR5 IgM Mab A; MOLM13, Blood (Leukemia) Acute myelogenous leukemia; 72 hours
ASPC1 = experiment: as above; format: cell-based; conditions: combination with anti-DR5 IgM Mab A; ASPC1, Pancreas Ductal adenocarcinoma; 72 hours
HCT15 = experiment: as above; format: cell-based; conditions: combination with anti-DR5 IgM Mab A; HCT15, Colorectal adenocarcinoma; 72 hours
NCIH2228 = experiment: as above; format: cell-based; conditions: combination with anti-DR5 IgM Mab A; NCIH2228, Lung, Non-small cell; 72 hours
BXPC3 = experiment: as above; format: cell-based; conditions: combination with anti-DR5 IgM Mab A; BXPC3, Pancreas adenocarcinoma; 72 hours
NUGC4 = experiment: as above; format: cell-based; conditions: combination with anti-DR5 IgM Mab A; NUGC4, Gastric Adenocarcinoma; 72 hours
LOUNH91 = experiment: as above; format: cell-based; conditions: combination with anti-DR5 IgM Mab A; LOUNH91, Lung Squamous cell carcinoma; 72 hours
NCIH460 = experiment: as above; format: cell-based; conditions: combination with anti-DR5 IgM Mab A; NCIH460, Lung, Non-small cell; 72 hours
HT1080 = experiment: as above; format: cell-based; conditions: combination with anti-DR5 IgM Mab A; HT1080, Connective tissue Fibrosarcoma; 72 hours
NCIN87 = experiment: as above; format: cell-based; conditions: combination with anti-DR5 IgM Mab A; NCIN87, Gastric Adenocarcinoma, tubular; 72 hours
MV411 = experiment: as above; format: cell-based; conditions: combination with anti-DR5 IgM Mab A; MV411, Blood (Leukemia) Acute myelogenous leukemia; 72 hours
Colo205 tumor cells = experiment: Colo205 subcutaneous tumor model in NCr nude mice (Examples 2-5, 14); format: in vivo; conditions: study termination on day 100; paclitaxel 25 mg/kg i.v. 5 doses, alone or with Mab A 5 mg/kg i.v. 7 doses

SMILES | Average Bliss score (HCT 116) | Average Bliss score (SW1353) | Average Bliss score (OVCAR-4) | Average Bliss score (SK-MEL-5) | Average Bliss score (EBC-1) | Average Bliss score (HT 1080) | Average Bliss score (SNU5) | Average Bliss score (NCIH508) | Average Bliss score (HT55) | Average Bliss score (PANC1) | Average Bliss score (ASPC1) | Average Bliss score (HCT15) | Average Bliss score (NCIH2228) | Average Bliss score (BXPC3) | Average Bliss score (NUGC4) | Average Bliss score (LOUNH91) | Average Bliss score (NCIH460) | Average Bliss score (HT1080) | Average Bliss score (NCIN87) | further results
COc1ccccc1-c1nccc(COc2ccccc2C[C@H](Oc2ncnc3sc(-c4ccc(F)cc4)c(-c4ccc(OCCN5CCN(C)CC5)c(Cl)c4C)c23)C(=O)O)n1 (atropisomer, axis not shown) [MIK665, MIK665/S-64315] |  |  |  |  |  |  |  |  |  |  |  |  |  |  |  |  |  |  |  | single agent cytotoxicity (cell viability curves) (WSU-DLCL2; WSU-DLCL2 cells): complete cytotoxicity; Average Bliss score (WSU-DLCL2): 16; Average Bliss score (OCI-LY7): 3.5; Average Bliss score (Karpas-422): 3.7; Average Bliss score (U-937 [1]): 4.8; single agent cytotoxicity (cell viability curves) (U-937 [2]): complete cytotoxicity; Average Bliss score (DOHH-2): 3.1; cytotoxicity in primary human hepatocytes [3]: causes cytotoxicity; Average Bliss score (Toledo): 6.7
CN[C@@H](C)C(=O)N[C@H]1CN(S(=O)(=O)c2cccc(S(=O)(=O)N3CC[C@H]4CC[C@@H](C(=O)NC(c5ccccc5)c5ccccc5)N4C(=O)[C@@H](NC(=O)[C@H](C)NC)C3)c2)CC[C@H]2CC[C@@H](C(=O)NC(c3ccccc3)c3ccccc3)N2C1=O [APG-1387] | 34 | −3 | 10 | 7 | 47 | 38 |  |  |  |  |  |  |  |  |  |  |  |  |  | 
C[C@@H]1CN(CC(=O)N2CC(C)(C)c3nc(CO)c(Cc4ccc(F)cc4)cc32)[C@@H](CN2CCOC[C@H]2C)CN1 [ASTX660] | 29 | −2 | 9 | 11 | 17 | 20 |  |  |  |  |  |  |  |  |  |  |  |  |  | 
CN[C@@H](C)C(=O)N[C@H]1CN(C(=O)CC(C)C)CC[C@H]2CC[C@@H](C(=O)NC(c3ccccc3)c3ccccc3)N2C1=O [Debio 1143] | 19 | −1 | 3 | 4 | 23 | 12 |  |  |  |  |  |  |  |  |  |  |  |  |  | 
CN[C@@H](C)C(=O)N[C@H](C(=O)N1CCC[C@H]1C(=O)Nc1snnc1-c1ccccc1)C1CCCCC1 [GDC-0152, GDC-0152/RG-7419] |  |  |  |  |  |  |  |  |  |  |  |  |  |  |  |  |  |  |  | single agent cytotoxicity (cell viability curves) (MDA-MB-231 tumor cells): little to no cytotoxicity; single agent cytotoxicity (cell viability curves) [4]: little to no cytotoxicity
COc1cccc2c1C(=O)c1c(O)c3c(c(O)c1C2=O)C[C@@](O)(C(=O)CO)C[C@@H]3O[C@H]1C[C@H](N)[C@H](O)[C@H](C)O1 [doxorubicin, Doxorubicin] |  |  |  |  |  |  | 12 | 1.3 | 1.6 | 7.3 | −0.63 | 10 | 16 | 1.5 | 8.9 | 12 | 4 | 1.5 | 12 | Average Bliss score [5]: 0.94; Average Bliss score (UMUC3): 8.8; Average Bliss score (MOLM13): 5.2; Average Bliss score (MV411): 7.1
COc1cc([C@@H]2c3cc4c(cc3[C@@H](O[C@@H]3O[C@@H]5CO[C@@H](C)O[C@H]5[C@H](O)[C@H]3O)[C@H]3COC(=O)[C@H]23)OCO4)cc(OC)c1O [etoposide, Etoposide] |  |  |  |  |  |  | 3.6 | −0.99 | 5.1 | 10 | 5.2 | 15 | 14 | 2.2 | −2.3 | 16 | 3.6 | 3.6 | 17 | 
CC[C@H](Nc1ncnc2nc[nH]c12)c1nc2cccc(F)c2c(=O)n1-c1ccccc1 [idelalisib, Idelalisib] |  |  |  |  |  |  |  |  |  |  |  |  |  |  |  |  |  |  |  | Average Bliss score (WSU-DLCL2): −7.4; Average Bliss score (OCI-LY7): −1.8; Average Bliss score (Karpas-422): −3.2; Average Bliss score (U-937 [1]): 2.7; Average Bliss score (DOHH-2): −0.89; Average Bliss score (Toledo): −1.6
CC(=O)O[C@H]1C(=O)[C@@]2(C)[C@H]([C@H](OC(=O)c3ccccc3)[C@]3(O)C[C@H](OC(=O)[C@H](O)[C@@H](NC(=O)c4ccccc4)c4ccccc4)C(C)=C1C3(C)C)[C@]1(OC(C)=O)CO[C@@H]1C[C@@H]2O [paclitaxel, Paclitaxel] |  |  |  |  |  |  | 2.8 | 8.4 | 6.2 | 15 | 14 | 7.6 | 15 | 3.8 | 7 | 9.7 | 4.7 | 2.7 | 13 | Average Bliss score [5]: 5.3; Average Bliss score (UMUC3): 6.3; animals with no visible tumors (tumor-free) (Colo205 tumor cells): 2 out of 10
CC[C@]1(O)C[C@H]2CN(CCc3c([nH]c4ccccc34)[C@@](C(=O)OC)(c3cc4c(cc3OC)N(C=O)[C@H]3[C@@](O)(C(=O)OC)[C@H](OC(C)=O)[C@]5(CC)C=CCN6CC[C@]43[C@@H]65)C2)C1 [vincristine, Vincristine] |  |  |  |  |  |  |  |  |  |  |  |  |  |  |  |  |  |  |  | single agent cytotoxicity (cell viability curves) (U-937 [1]; U-937 cells): strong cytotoxicity
